The text below walks through data of patent EP4603105A1, “PHARMACEUTICAL COMPOSITION CONTAINING CYCLIC COMPOUND HAVING SELECTIVE KRAS INHIBITORY EFFECT AGAINST HRAS AND NRAS” (CHUGAI SEIYAKU KABUSHIKI KAISHA, priority 2022, dated 2024).

Experiment [1] concerns human colorectal cancer strain GP2d. In kind it is cell-based. How it is done: (§1) A test compound was dispensed into a U-bottom 384-well plate as 40 nL serially diluted dimethyl sulfoxide solutions using a liquid handler Echo (LABCYTE). As for human colorectal cancer strain GP2d (ECACC), a cell suspension was prepared so as to have 500 cells/40 µL in a Dulbecco's modified Eagle medium supplemented with 10% fetal bovine serum (Sigma). This cell suspension was dispensed in an amount of 40 µL per well into a plate containing the test compound, and cultured at 37°C in a 5% carbon dioxide gas incubator. Seven days later, 20 µL of CellTiter-Glo (registered trademark) (Promega) was added to each well and luminescence was measured.

Experiment [2] concerns human gastric cancer strain GSU. Type of experiment: cell-based. How it is done:
as §1, with “gastric” for “colorectal”, “GSU (Institute of Physical and Chemical Research),” for “GP2d (ECACC),”, “200” for “500”, “an RPMI-1640” for “a Dulbecco's modified Eagle”, “medium (Sigma)” for “medium”

The target in experiment [3] is HRAS wild-type protein (Homo sapiens, UniProt P01112). As to the kind of experiment: Binding to HRAS by surface plasmon resonance (SPR), KD and KD ratio to KRAS. The gist of the method:
(§2)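 Running buffer contained 10 µM GDP and 10 mM MgCl2 to keep RAS in the GDP state, with 4% DMSO at pH 7.4. Compounds were flowed at 100 µL/min in 75 s steps of rising concentration over captured biotin-Avi RAS at 30°C. Sensorgrams were fitted 1:1 for KD.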

Experiment [4] concerns human pancreatic cancer strain KP4. In kind it is cell-based. How it is done:
as §1, with “pancreatic” for “colorectal”, “KP4 (Institute of Physical and Chemical Research),” for “GP2d (ECACC),”, “DMEM/Ham's F-12” for “Dulbecco's modified Eagle”, “medium (Nacalai Tesque)” for “medium”

Experiment [5] concerns the target GDP-bound NRAS wild-type protein (Homo sapiens, UniProt P01111). The experiment can be described thus: Binding to NRAS by surface plasmon resonance (SPR), KD and KD ratio to KRAS. The gist of the method: as §2
(In general: Surface plasmon resonance follows binding to a sensor surface in real time, without labels.)

The subject of experiment [6] is human ovarian cancer strain OV7. In kind it is cell-based. The protocol: A test compound was dispensed into a U-bottom 384-well plate as 40 nL serially diluted dimethyl sulfoxide solutions using a liquid handler Echo (LABCYTE). As for human ovarian cancer strain OV7 (ECACC), a cell suspension was prepared so as to have 250 cells/40 µL in a DMEM/Ham's F-12 medium (Nacalai Tesque) supplemented with 5% fetal bovine serum (Sigma), 0.5 µg/mL hydrocortisone, and 10 µg/mL insulin. This cell suspension was dispensed in an amount of 40 µL per well into a plate containing the test compound, and cultured at 37°C in a 5% carbon dioxide gas incubator. Seven days later, 20 µL of CellTiter-Glo (registered trademark) (Promega) was added to each well and luminescence was measured.

The subject of experiment [7] is human bladder cancer strain UM-UC-3. In kind it is cell-based. How it is done: A test compound was dispensed into a U-bottom 384-well plate as 40 nL serially diluted dimethyl sulfoxide solutions using a liquid handler Echo (LABCYTE). As for human bladder cancer strain UM-UC-3 (ATCC), a cell suspension was prepared so as to have 250 cells/40 µL in an MEM medium (Nacalai Tesque) supplemented with 10% fetal bovine serum (Sigma), an MEM non-essential amino acids solution (100X), and 1 mmol/L sodium pyruvate. This cell suspension was dispensed in an amount of 40 µL per well into a plate containing the test compound, and cultured at 37°C in a 5% carbon dioxide gas incubator. Seven days later, 20 µL of CellTiter-Glo (registered trademark) (Promega) was added to each well and luminescence was measured. […]

In experiment [8] the test system is human lung cancer strain NCI-H441. In kind it is cell-based. The gist of the method: (§3)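 Step one: dispense the test compound in serial DMSO dilutions. Step three: add the reagent and measure […].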
The test system of experiment [9] is human gastric cancer strain SNU-1. In kind it is cell-based. The protocol:
A test compound was dispensed into a U-bottom 384-well plate as 40 nL serially diluted dimethyl sulfoxide solutions using a liquid handler Echo (LABCYTE). As for human gastric cancer strain SNU-1 (ATCC), a cell suspension was prepared so as to have 250 cells/40 µL in an RPMI-1640 medium (Sigma) supplemented with 10% fetal bovine serum (Sigma), a 2.5 g/L D-(+)-glucose solution, 10 mmol/L HEPES, and 1 mmol/L sodium pyruvate. This cell suspension was dispensed in an amount of 40 µL per well into a plate containing the test compound, and cultured at 37°C in a 5% carbon dioxide gas incubator. Seven days later, 20 µL of CellTiter-Glo (registered trademark) (Promega) was added to each well and luminescence was measured.

The subject of experiment [10] is human lung cancer strain NCI-H441. The experiment can be described thus: NCI-H441 cell proliferation inhibitory activity (CellTiter-Glo, 4 days). Type of experiment: cell-based. The note with it: NCI-H441 cells, 4 days, read-out: NCl-H441 IC50. The gist of the method: as §3
Background: Cellular ATP, detected with luciferase, serves as a proxy for viable cell number.

Experiment [11] addresses GDP-bound KRAS wild-type protein (Homo sapiens, UniProt P01116). As to the kind of experiment: Binding to KRAS by surface plasmon resonance (SPR), dissociation constant KD. The note with it: Single Cycle Kinetics. The gist of the method:
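Single-cycle kinetics on GDP-loaded biotin-Avi RAS captured to ~100–300 RU; 75 s ascending injections, 100 µL/min, 30°C. HBS pH 7.4 + 10 mM MgCl2/10 µM GDP/4% DMSO. 1:1 fit, KD.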

Where [12] appears, read: ratio of KD for HRAS wild-type protein to KD for KRAS.
Where [13] appears, read: ratio of KD for GDP-bound NRAS wild-type protein to KD for KRAS.

Read-outs that look alike come from different tables or passages of the source.

Sequence of GDP-bound NRAS wild-type protein (P01111 whole entry): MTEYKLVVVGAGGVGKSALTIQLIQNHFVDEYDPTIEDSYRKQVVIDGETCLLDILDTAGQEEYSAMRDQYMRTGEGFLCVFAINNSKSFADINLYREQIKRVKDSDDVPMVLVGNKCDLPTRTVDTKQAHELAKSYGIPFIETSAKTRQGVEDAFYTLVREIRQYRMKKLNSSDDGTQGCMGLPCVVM
Sequence of GDP-bound KRAS wild-type protein (P01116 1-188 isoform P01116-2): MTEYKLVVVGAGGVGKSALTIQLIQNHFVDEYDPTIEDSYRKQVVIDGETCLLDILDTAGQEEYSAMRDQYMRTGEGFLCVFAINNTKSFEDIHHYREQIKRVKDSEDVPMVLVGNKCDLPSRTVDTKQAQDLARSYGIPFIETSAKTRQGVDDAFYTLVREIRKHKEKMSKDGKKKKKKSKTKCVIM
Sequence of HRAS wild-type protein (P01112 whole entry): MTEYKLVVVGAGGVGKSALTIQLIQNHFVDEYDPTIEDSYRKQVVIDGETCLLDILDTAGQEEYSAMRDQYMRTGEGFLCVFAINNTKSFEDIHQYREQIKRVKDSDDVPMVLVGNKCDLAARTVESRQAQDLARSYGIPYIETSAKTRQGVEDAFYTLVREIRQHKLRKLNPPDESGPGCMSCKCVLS

As to `CCC[C@H]1C(=O)N[C@@H]([C@@H](C)CC)C(=O)N2CCC[C@H]2C(=O)N(C)[C@H]2C/C=C\CCN(C2=O)[C@@H](Cc2ccc(C(F)(F)F)cc2)C(=O)N(C)CC(=O)N[C@@H](CCc2ccc(C(F)(F)F)c(OC)c2)C(=O)N2C[C@H](OCC)C[C@H]2C(=O)N(C)C2(CCC2)C(=O)N(C)[C@@H](C2CCCC2)C(=O)N(C)[C@H](C(=O)N(C)C)CC(=O)N1C` [PP2320, (1S,4S,10S,13S,17S,20S,26S,28R,32S,38S,42Z)-20-cyclopentyl-28-ethoxy-32-[2-[3-methoxy-4-(trifluoromethyl)phenyl]ethyl]-N,N,2,14,18,21,24,36-octamethyl-10-[(1S)-1-methylpropyl]-3,9,12,15,19,22,25,31,34,37,45-undecaoxo-13-propyl-38-[[4-(trifluoromethyl)phenyl]methyl]spiro[2,8, 11,14,18,21,24,30,33,36,39-undecazatetracyclo[37.5.1.0^4,8.0^26,30]pentatetracont-42-ene-23,1'-cyclobutane]-17-carboxamide], the IC50 – broadly, the concentration needed to halve the response being measured – came out at 3.1 nM in experiment [1]; 1.2 nM in experiment [2]; 4.8 nM in [4]; 8.7 nM in experiment [6]; 1.3 nM in experiment [7]; 0.6 nM in experiment [8]. Also, the IC50 in experiment [9] was found to be 5.6 nM. For the same compound, in experiment [3] (ratio of the KD value with respect to HRAS wild-type protein to the KD value with respect to KRAS), the “HRAS /KRAS” value is “A (a compound having 10 or more and less than 20 is denoted as A)”. In experiment [5] (ratio of the KD value with respect to GDP-bound NRAS wild-type protein to the KD value with respect to KRAS), the “NRAS /KRAS” value is “A (a compound having 10 or more and less than 20 is denoted as A)”.

As for `CCO[C@@H]1C[C@H]2C(=O)NC3(CCCC3)C(=O)N(C)[C@@H](C3CCCC3)C(=O)N(C)[C@H](C(=O)N(C)C)CC(=O)N(C)[C@@H](CC(C)C)C(=O)N[C@@H]([C@@H](C)CC)C(=O)N(C)CC(=O)N(C)[C@H]3C/C(F)=C\CCN(C3=O)[C@@H](Cc3ccc(C(F)(F)F)cc3)C(=O)N(C)CC(=O)N[C@@H](CCc3cc(F)c(C(F)(F)F)c(F)c3)C(=O)N2C1` [PP3510, (2S,8S,12R,14S,20S,23S,27S,30S,36S,38E)-20-cyclopentyl-8-[2-[3,5-difluoro-4-(trifluoromethyl)phenyl]ethyl]-12-ethoxy-38-fluoro-27-isobutyl-N,N,4,19,22,26,32,35-octamethyl-30-[(1S)-1-methylpropyl]-3,6,9,15,18,21,25,28,31,34,42-undecaoxo-2-[[4-(trifluoromethyl)phenyl]methyl]spiro[1,4,7,10,16,19,22,26,29,32,35-undecazatricyclo[34.5.1.0^10,14]dotetracont-38-ene-17,1'-cyclopentane]-23-carboxamide], the IC50 in experiment [1] is 13.7 nM; in experiment [2] it was 1.2 nM; in [4] it was 16.8 nM; in [6], 23.6 nM; in experiment [7], 11.5 nM; in experiment [8], 11.1 nM. Further, the IC50 in experiment [9] is 6.6 nM. The “HRAS /KRAS” value in [3] (setting [12]) was “B (a compound having 3 or more and less than 10 is denoted as B)”. Besides, the “NRAS /KRAS” value in experiment [5] (setting [13]) is “B (a compound having 3 or more and less than 10 is denoted as B)”.

Consider `CCC[C@H]1C(=O)N[C@@H]([C@@H](C)CC)C(=O)N(C2CC2)CC(=O)N(C)[C@H]2C/C(F)=C\CCN(C2=O)[C@@H](Cc2ccc(C)cc2)C(=O)N(C)CC(=O)N[C@@H](CCc2cc(F)c(C(F)(F)F)c(F)c2)C(=O)N2C[C@H](OCC)C[C@H]2C(=O)N(C)C2(CCC2)C(=O)N(C)[C@@H](C2CCCC2)C(=O)N(C)[C@H](C(=O)N(C)C)CC(=O)N1C` [PP3527], for which the IC50 in experiment [10] was determined as 7.2 nM. The “HRAS /KRAS” value in experiment [3] (setting [12]) was “B (a compound having 3 or more and less than 10 is denoted as B)”. Besides, the “NRAS /KRAS” value in experiment [5] (setting [13]) was “B (a compound having 3 or more and less than 10 is denoted as B)”. Moreover, in experiment [11], binding was characterised by a dissociation constant (Kd) of 0.38 nM.

Consider `CCC[C@H]1C(=O)N[C@@H]([C@@H](C)CC)C(=O)N(C)CC(=O)N(C)[C@H]2C/C(F)=C\CCN(C2=O)[C@@H](Cc2ccc(C)cc2)C(=O)N(C)CC(=O)N[C@@H](CCc2cc(F)c(C(F)(F)F)c(F)c2)C(=O)N2C[C@H](OCC)C[C@H]2C(=O)N(C)C2(CCC2)C(=O)N(C)[C@@H](C2CCCC2)C(=O)N(C)[C@H](C(=O)N(C)C)CC(=O)N1C` [PP3528], for which the IC50 in experiment [10] came to 3.7 nM. Further, the “HRAS /KRAS” value in experiment [3] (setting [12]) was “B (a compound having 3 or more and less than 10 is denoted as B)”. In addition, in experiment [5] (setting [13]), the “NRAS /KRAS” value was “B (a compound having 3 or more and less than 10 is denoted as B)”. For the same compound, in experiment [11], the Kd (usually the free concentration of one partner at which half of the binding sites on the other are occupied at equilibrium, for simple one-to-one binding) is 0.062 nM.

In the case of `CCC[C@H]1C(=O)N[C@@H]([C@@H](C)CC)C(=O)N2CC[C@H]2C(=O)N(C)[C@H]2C/C(F)=C\CCN(C2=O)[C@@H](Cc2ccc(C(F)(F)F)cc2)C(=O)N(C)CC(=O)N[C@@H](CCc2ccc(C(F)(F)F)c(OC)c2)C(=O)N2C[C@H](OCC)C[C@H]2C(=O)N(C)C2(CCC2)C(=O)N(C)[C@@H](C2CCCC2)C(=O)N(C)[C@H](C(=O)N(C)C)CC(=O)N1C` [PP3529], the IC50 in experiment [10] worked out at 7.1 nM. In addition, in experiment [3] (setting [12]), the “HRAS /KRAS” value is “B (a compound having 3 or more and less than 10 is denoted as B)”. In addition, the “NRAS /KRAS” value in experiment [5] (setting [13]) was “B (a compound having 3 or more and less than 10 is denoted as B)”. This compound had a Kd in experiment [11] of 0.11 nM.

Consider `CCC[C@H]1C(=O)N[C@@H]([C@@H](C)CC)C(=O)N2CC[C@H]2C(=O)N(C)[C@H]2C/C(F)=C\CCN(C2=O)[C@@H](Cc2ccc(C)cc2)C(=O)N(C)CC(=O)N[C@@H](CCc2ccc(C(F)(F)F)c(OC)c2)C(=O)N2C[C@H](OCC)C[C@H]2C(=O)N(C)C2(CCC2)C(=O)N(C)[C@@H](C2CCCC2)C(=O)N(C)[C@H](C(=O)N(C)C)CC(=O)N1C` [PP3530], for which the IC50 in experiment [10] is 6.8 nM. The “HRAS /KRAS” value in experiment [3] (setting [12]) was “B (a compound having 3 or more and less than 10 is denoted as B)”. Moreover, the “NRAS /KRAS” value in experiment [5] (setting [13]) was “B (a compound having 3 or more and less than 10 is denoted as B)”. The compound further gave a Kd in [11] of 0.14 nM.
